In brackets after ≈: the same amount, converted by molar mass.
How the values were obtained:
[1] = tested on: Escherichia coli AB1157 ΔmacB; assay: Checkerboard MIC assay (antibacterial agent + MBX2319); format: cell-based; details: MacB-defective mutant; data not shown
Excerpt: (§1) • Strains and Reagents. The following strains were obtained from the Keio collection (Baba, et al.: Construction of Escherichia coli K-12 in-frame, single-gene knockout mutants: the Keio collection. In Mol Syst Biol, vol. 2, pp. 2006 0008, (2006)): JW0451 (ΔacrB::kan), JW5503 (ΔtolC::kan), JW3234 (ΔacrF::kan), JW2661 (ΔemrB::kan), JW0863 (ΔmacB::kan). The deletion mutations in each of these strains were transferred to AB1157 using P1 phage transduction (see Table 1). The construction of the E. coli cell-based reporter strain (SOS-XXX) that was used for high throughput screening is described in detail in the supplementary information. […] Irgasan was a generous gift from Ciba Speciality Chemicals, Inc. (High Point, N.C.). Hoechst 33342 (H33342) was purchased from Molecular Probes (Eugene, Oreg.). […] Luria Broth (Miller) and agar were purchased as prepared dehydrated media from Becton Dickenson (Franklin Lakes, N.J.). The compound libraries used in high-throughput screens were purchased from Chembridge (San Diego, Calif.), ChemDiv (San Diego, Calif.), and TimTec (Newark, Del.). MBX2319 was synthesized by Microbiotix, Inc. • Antibacterial Activity Assays. The minimal inhibitory concentration (MIC) of antibacterial agents and biocides were determined using the microbroth dilution method essentially as described in the CLSI protocol M7-A7 (CLSI: Method for dilution antimicrobial susceptibility testing for bacteria that grow aerobically; Approved standard-document M7-A7. In Clinical and Laboratory Standards Institute document M7-A7, Clinical and Laboratory Standards Institute, Wayne, Pa., (2006)), with the following exceptions. LB media was used instead of MHB. […] The final concentration of DMSO in each assay was 2%. […] MIC assays were performed in triplicate and the geometric mean was calculated. Checkerboard MIC assays using an EPI and an antibacterial agent were performed essentially as described (Pillai, et al.: Antimicrobial Combinations. In Antibiotics in Laboratory Medicine, ed. by V. Lorian, pp. 365-440, Lippincott Williams & Wilkins, Philadelphia, Pa., (2005)), with the same modifications used for the MIC assays described above. • Time-Kill Assays. Killing curve assays were performed essentially as described (Pillai, et al.: Antimicrobial Combinations. In Antibiotics in Laboratory Medicine, ed. by V. Lorian, pp. 365-440, Lippincott Williams & Wilkins, Philadelphia, Pa., (2005)). Exponential bacterial cultures grown in LB were diluted to a cell density of ˜1×10^7 in LB followed by addition of CIP and/or an EPI. Viability was monitored over 2-4 hours by making serial dilutions in saline and spotting 5 μl of each dilution onto the surface of an LB agar plate in triplicate. Colonies were counted after the plates were incubated at 37° C. for 16-18 hr, colony forming units (CFU) per ml were calculated, and the average and standard deviation for the three replicates was determined. For treatments that decreased CFU/ml below the limit of detection for the spot plating method, the 100 μl samples were diluted into 5 ml LB top agar, were poured onto LB agar plates, and incubated for 18 hr at 37° C. To calculate the fraction of the control for each sample, the average CFU/ml values for treated samples were divided by those from the same sample at 0 h (time=0). Each experiment was repeated at least three times, and a representative experiment is shown. • H33342 Accumulation Assay. The rate of accumulation of the fluorescent dye Hoechst 33342 (H33342), which is a substrate of a wide variety of bacterial efflux pumps (van den Berg van Saparoea, et al., Biochemistry, vol. 44, pp. 16931-16938, (2005)), can be used to estimate the activity of the major efflux pumps in E. coli and many other bacterial species. The H33342 accumulation assay was used to evaluate the effect of EPIs on the activity of the AcrAB-TolC efflux pump in several bacterial species essentially as described (Coldham, et al., J Antimicrob Chemother, vol. 65, pp. 1655-1663, (2010)). […]

[2] = tested on: Escherichia coli AB1157 ΔemrB; assay: as above; format: cell-based; details: EmrB-defective mutant; data not shown
Excerpt: as §1

AcrAB-TolC efflux pump = AcrAB-TolC efflux pump (Escherichia coli, UniProt P31224); assay: H33342 accumulation assay; format: cell-based; set-up: endogenous in cells; host or cells: E. coli 331 (fluoroquinolone-resistant); details: E. coli 331 (CIPR); 25 μM
[3] = Solubility in phosphate buffers; format: physicochemical; details: phosphate buffer, aqueous buffer, read-out: solubility limit
[4] = tested on: Enterobacter aerogenes ATCC 13048; assay: MIC assay (microbroth dilution) ± 25 μM EPI; format: cell-based
Excerpt: as §1

[5] = tested on: Shigella flexneri ATCC 12022; assay: MIC assay (microbroth dilution) ± 25 μM EPI; format: cell-based
Excerpt: as §1

Escherichia coli AB1157 = assay: MIC assay (microbroth dilution) ± 25 μM EPI; format: cell-based; details: Escherichia coli, AB1157, read-out: MICs (μg/ml) ± EPIs: None
Excerpt: as §1

[6] = tested on: Escherichia coli ATCC 25922; assay: MIC assay (microbroth dilution) ± 25 μM EPI; format: cell-based
Excerpt: as §1

[7] = tested on: Salmonella enterica ATCC 14028; assay: MIC assay (microbroth dilution) ± 25 μM EPI; format: cell-based
Excerpt: as §1

Escherichia coli 331 = assay: MIC assay (microbroth dilution) ± 25 μM EPI; format: cell-based; details: E. coli 331
Excerpt: as §1

[8] = tested on: Klebsiella pneumoniae ATCC 700603; assay: MIC assay (microbroth dilution) ± 25 μM EPI; format: cell-based
Excerpt: as §1

[9] = MIC no cmpd/MIC + 25 μM MBX2319

AcrAB-TolC efflux pump, sequence (P31224 whole entry): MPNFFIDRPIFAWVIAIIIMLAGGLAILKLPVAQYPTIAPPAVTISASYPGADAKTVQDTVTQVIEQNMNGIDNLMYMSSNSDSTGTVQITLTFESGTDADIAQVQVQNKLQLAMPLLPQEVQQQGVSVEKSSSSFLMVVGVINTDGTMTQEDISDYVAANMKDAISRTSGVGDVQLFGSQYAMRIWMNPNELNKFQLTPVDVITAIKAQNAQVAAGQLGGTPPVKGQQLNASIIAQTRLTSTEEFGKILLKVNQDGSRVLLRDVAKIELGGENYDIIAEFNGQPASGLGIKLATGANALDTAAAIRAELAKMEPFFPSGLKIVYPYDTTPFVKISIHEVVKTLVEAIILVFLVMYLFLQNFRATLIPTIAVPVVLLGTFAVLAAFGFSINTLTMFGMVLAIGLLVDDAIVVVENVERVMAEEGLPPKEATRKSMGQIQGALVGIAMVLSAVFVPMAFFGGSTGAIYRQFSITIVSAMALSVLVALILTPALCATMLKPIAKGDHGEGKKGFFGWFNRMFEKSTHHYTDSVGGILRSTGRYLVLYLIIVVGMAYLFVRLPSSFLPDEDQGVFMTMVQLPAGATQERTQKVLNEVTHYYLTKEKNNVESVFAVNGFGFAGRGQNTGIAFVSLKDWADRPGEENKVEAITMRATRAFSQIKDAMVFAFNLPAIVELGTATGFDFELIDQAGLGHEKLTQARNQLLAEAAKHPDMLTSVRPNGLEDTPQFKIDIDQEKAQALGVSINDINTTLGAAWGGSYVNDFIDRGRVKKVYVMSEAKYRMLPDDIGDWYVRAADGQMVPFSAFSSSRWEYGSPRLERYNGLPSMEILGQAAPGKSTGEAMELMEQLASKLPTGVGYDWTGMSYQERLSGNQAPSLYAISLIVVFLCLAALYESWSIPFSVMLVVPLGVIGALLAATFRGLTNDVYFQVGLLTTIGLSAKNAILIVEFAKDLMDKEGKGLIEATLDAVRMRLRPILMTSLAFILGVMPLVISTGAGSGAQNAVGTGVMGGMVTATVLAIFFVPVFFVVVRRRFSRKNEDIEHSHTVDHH
AcrAB-TolC efflux pump, sequence (P0AE06 25-397, further chain): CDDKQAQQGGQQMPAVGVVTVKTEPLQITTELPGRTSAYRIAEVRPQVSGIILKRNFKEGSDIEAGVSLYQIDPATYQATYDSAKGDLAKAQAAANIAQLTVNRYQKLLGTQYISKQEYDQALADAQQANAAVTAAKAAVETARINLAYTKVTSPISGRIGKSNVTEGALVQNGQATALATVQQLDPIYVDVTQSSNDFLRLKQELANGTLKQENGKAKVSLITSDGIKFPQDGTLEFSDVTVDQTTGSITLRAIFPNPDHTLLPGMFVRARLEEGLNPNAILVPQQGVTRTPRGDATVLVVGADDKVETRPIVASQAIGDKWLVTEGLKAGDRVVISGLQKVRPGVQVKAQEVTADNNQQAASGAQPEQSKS
AcrAB-TolC efflux pump, sequence (P02930 23-493, further chain): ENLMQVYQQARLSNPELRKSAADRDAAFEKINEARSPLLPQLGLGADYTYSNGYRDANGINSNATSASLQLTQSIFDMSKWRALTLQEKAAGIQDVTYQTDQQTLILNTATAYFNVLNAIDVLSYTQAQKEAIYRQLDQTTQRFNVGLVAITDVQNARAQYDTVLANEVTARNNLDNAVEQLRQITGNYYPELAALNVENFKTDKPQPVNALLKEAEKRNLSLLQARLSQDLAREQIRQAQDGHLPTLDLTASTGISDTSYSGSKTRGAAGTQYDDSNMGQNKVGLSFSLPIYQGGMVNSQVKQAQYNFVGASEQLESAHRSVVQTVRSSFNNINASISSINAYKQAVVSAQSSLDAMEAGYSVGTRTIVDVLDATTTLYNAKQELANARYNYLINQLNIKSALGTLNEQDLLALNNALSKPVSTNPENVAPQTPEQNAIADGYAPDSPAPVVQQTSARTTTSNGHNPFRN

CC1(C)Cc2c(C#N)c(SCCc3ccccc3)nc(N3CCOCC3)c2CO1 [MBX2319]
MIC shifts by MBX2319 [1]: MIC shifts similar to WT
MIC shifts by MBX2319 [2]: MIC shifts similar to WT
H33342 accumulation (AcrAB-TolC efflux pump): weak activity
solubility [3]: 15 to 20 µM (≈ 6.14 to 8.19 µg/mL)

CCN1CCN(C(=O)N[C@@H](C(=O)N[C@@H]2C(=O)N3[C@@H]2SC(C)(C)[C@@H]3C(=O)O)c2ccccc2)C(=O)C1=O [Piperacillin, piperacillin]
MIC (μg/ml) ± EPI: MBX2319 ([4]; + 25 μM MBX2319): 1.4 µg/mL
MIC (μg/ml) ± EPI: PAβN ([4]; + 25 μM PAβN): 16 µg/mL
MIC ([4]; Klebsiella aerogenes, ATCC13048, no EPI, read-out: MIC (μg/ml) ± EPI: None): 4 µg/mL
MIC Ratio MBX2319 [4, 9]: 2.8
MIC Ratio PAβN ([4]; MIC no cmpd/MIC + 25 μM PAβN): 0.2
MIC (μg/ml) ± EPI: MBX2319 ([5]; Shigella flexneri ATCC 12022, + 25 μM MBX2319): 0.25 µg/mL
MIC (μg/ml) ± EPI: PAβN ([5]; Shigella flexneri ATCC 12022, + 25 μM PAβN): 1 µg/mL
MIC Ratio MBX2319 ([5]; Shigella flexneri ATCC 12022, MIC no cmpd/MIC + 25 μM MBX2319): 4
MIC Ratio PAβN ([5]; Shigella flexneri ATCC 12022, MIC no cmpd/MIC + 25 μM PAβN): 1
MIC ([5]; Shigella flexneri, ATCC12022, read-out: MIC (μg/ml) ± EPI: None): 1 µg/mL
MIC (Escherichia coli AB1157): 4 µg/mL
MIC (μg/ml) ± EPI: MBX2319 ([6]; E. coli ATCC 25922, + 25 μM MBX2319): 1.68 µg/mL
MIC (μg/ml) ± EPI: PAβN ([6]; E. coli ATCC 25922, + 25 μM PAβN): 4 µg/mL
MIC Ratio MBX2319 ([6]; E. coli ATCC 25922, MIC no cmpd/MIC + 25 μM MBX2319): 1.7
MIC Ratio PAβN ([6]; E. coli ATCC 25922, MIC no cmpd/MIC + 25 μM PAβN): 0.7
MIC ([6]; Escherichia coli, ATCC25922, read-out: MIC (μg/ml) ± EPI: None): 2.83 µg/mL
MIC (μg/ml) ± EPI: MBX2319 ([7]; + 25 μM MBX2319): 0.5 µg/mL
MIC (μg/ml) ± EPI: PAβN ([7]; + 25 μM PAβN): 4 µg/mL
MIC ([7]; ATCC14028, no EPI, read-out: MIC (μg/ml) ± EPI: None): 2.4 µg/mL
MIC Ratio MBX2319 [7, 9]: 4.8
MIC Ratio PAβN ([7]; MIC no cmpd/MIC + 25 μM PAβN): 0.6
MIC (μg/ml) ± EPI: MBX2319 (Escherichia coli 331; + 25 μM MBX2319): 0.707 µg/mL
MIC (μg/ml) ± EPI: PAβN (Escherichia coli 331; + 25 μM PAβN): 4 µg/mL
MIC Ratio MBX2319 (Escherichia coli 331; [9]): 5.6
MIC Ratio PAβN (Escherichia coli 331; MIC no cmpd/MIC + 25 μM PAβN): 1
MIC (Escherichia coli 331; Escherichia coli, no EPI, read-out: MIC (μg/ml) ± EPI: None): 4 µg/mL
MIC (μg/ml) ± EPI: MBX2319 ([8]; + 25 μM MBX2319): 113 µg/mL
MIC (μg/ml) ± EPI: PAβN ([8]; + 25 μM PAβN): 113 µg/mL
MIC ([8]; ATCC700603, no EPI, read-out: MIC (μg/ml) ± EPI: None): 113 µg/mL
MIC Ratio MBX2319 [8, 9]: 1
MIC Ratio PAβN ([8]; MIC no cmpd/MIC + 25 μM PAβN): 1

Source: patent US9540389B2, “Antimicrobial potentiators” (priority 2013, dated 2017)
